Laboratory results reported in patent US20010001095A1, “Method for treating plants” (University of Maryland Eatern Shore, priority 1996, published 2001).
Marks after values point to notes of the source that are not given here.

What was measured:
[1] = tested on: soybean (Glycine max (L.) Merr. cv. 'Corsica'); assay: Field experiments: foliar applications on soybean, seed yield by weight; assay type: in vivo
Experimental: To test the effects of foliar applications of methanol on soybean (Glycine max (L.) Merr. cv. ‘Corsica’ (maturity group IV)), field experiments were conducted over three years. In the first year, methanol at 0, 62.5 and 125 liters×ha^−1 was combined with urea nitrogen at 0, 12.5 and 25 kg×ha^−1 and sprayed with distilled water in a total volume of 500 liters×ha^−1 on test plants at the R5 stage of development. Latron B-1956 (Rohm and Haas) surfactant at 0.1% was included in all treatments. Treatments were applied from a knapsack sprayer in a randomized complete block design with four replications. Test blocks measured 5m×1.52m (7.6m^2). Plants were harvested by hand, threshed, and seed yield determined by weight. All seed weights are reported at 13% moisture content. […] To test whether PPFMS applied to leaves can substitute for methanol, spray applications of the bacterial alone and in combination with methanol were included in field experiments in the third year. […] The bacteria used in these treatments were isolated from soybean seed coat on plates of AMS medium. From a single bacterial colony, a liquid culture in the same medium was established and used to inoculate 12 liter batches of the bacteria in a Microferm fermentor (New Brunswick Scientific). Cells were harvested by centrifugation and resuspended in distilled water for application to plants in the field.

[2] = tested on: soybean; assay: Greenhouse experiment: methanol sprayed on soybean plants from cured (PPFMs absent) or untreated (PPFMs present) seeds, plant dry weight; assay type: in vivo; settings: for Mean dry weight +/− SD: methanol 0.5 ml per plant, harvested 2 weeks after spraying; for % gain over controls (dry weight): vs zero-time control
Experimental: Application of PPFMs to plants was performed in accordance with the methods detailed in U.S. Pat. No. 5,512,069. Application of methanol to plants was performed in accordance with U.S. Patent No. 5,532,204.
Soybeans were treated with dry heat before planting to lower the population of PPFMs on them (see U.S. Pat. No. 5,512,069). Untreated seeds served as controls.
To test whether the presence of PPFM bacteria is required for foliar applications of methanol to be effective, greenhouse experiments were conducted. Seeds of soybean were cured of their PPFM bacteria with dry heat as previously described (Holland et al, 1992, Plant Physiol 98:942-948)). Cured and untreated seeds wee then plated in the greenhouse in a soil-less potting medium (Pro-Mix BX), Premier Horticulture Inc.). During germination, and while the seedlings established themselves, all plants were watered freely. After 4 weeks, both cured and untreated plants were divided into two groups (each group consisting of approximately 10 pots of 5 plants). One group of cured seedlings and one group of untreated seedlings were maintained as before under freely-watered conditions. […] After 2 weeks, half of the plants in each test group were harvested and dried to constant weight (a zero-time control). The remaining plants were sprayed with methanol (0.5 ml per plant) from an atomizer and were allowed to continue growing under their respective watering regimes for an additional 2 weeks. At the end of this period, all remaining plants were harvested and dried to constant weight.

[3] = tested on: C3 crop plants; settings: foliar sprays of aqueous (10-50%) methanol, arid environments; cited from earlier work
[4] = second year, M1 = 62.5 liters × ha^−1 methanol, N1 = 12.5 kg × ha^−1 urea
[5] = non-stressed (freely watered), PPFMs present
[6] = stress (wilting) conditions, PPFMs present

SMILES	Yield (seed yield) ([1]; first year, M0N1: 0 methanol, 12.5 kg × ha^−1 urea, sprayed at R5)	Yield (seed yield) ([1]; first year, M0N2: 0 methanol, 25 kg × ha^−1 urea, sprayed at R5)	Yield (seed yield) [1, 4]	effect of methanol application on plant dry weight (a measure of yield) ([2]; non-stressed (freely watered) conditions, regardless of whether PPFMs are present)	Mean dry weight +/− SD ([2]; non-stressed (freely watered), PPFMs absent (cured seeds))	% gain over controls (dry weight) ([2]; non-stressed (freely watered), PPFMs absent (cured))	Mean dry weight +/− SD [2, 5]	% gain over controls (dry weight) [2, 5]	growth (increase in plant dry weight) ([2]; stress (wilting) conditions, only when PPFMs are present)	Mean dry weight +/− SD ([2]; stress (wilting) conditions, PPFMs absent (cured seeds))	% gain over controls (dry weight) ([2]; stress (wilting) conditions, PPFMs absent (cured))	Mean dry weight +/− SD [2, 6]	% gain over controls (dry weight) [2, 6]	Yield (seed yield) ([1]; first year, M2N0: 125 liters × ha^−1 methanol, 0 urea, sprayed at R5)	growth and yield [3]
NC(N)=O [urea]	2.18	2.15	2.4	–	–	–	–	–	–	–	–	–	–	–	–
CO [methanol]	–	–	2.4*	does not affect plant dry weight	5.03 ± 1.19 g	80%	6.85 ± 1.69 g	78%	improves growth	2.69 ± 0.65 g	6%	4.64 ± 0.72 g	65%	2.28	increased growth and yield
